Assay results published in patent publication US20200024246A1, “POGOSTONE DERIVATIVES AND METHODS OF USING THE SAME” (Hamyard Associates LLC, priority 2018, published 2020).
“Also recorded” adds a separate entry of the source.

What was measured:
[1] = test system: 3-4 instar Aedes aegypti larvae; experiment: Mosquito larvicide bioassay; format: in vivo
Protocol: Mosquito larvicide bioassays were performed by introducing various concentrations of test compounds (pyrone derivatives and rotenone) into acetone at various concentrations. 200 uL of these solutions were added to individual cups containing 10, 3-4 instar Aedes aegypti larvae and 25 mL of DI water. 2 mg of Tetramin™ was provided to each cup as a food source. […] Ataxia was used as the indicator of larval mortality. At least 5 concentrations were used which caused between 10 and 90% mortality. LC50 values were calculated using a PROC PROBIT model in SAS 9.4.

corn seeds = experiment: Seed treatment testing: survival/germination of treated corn seeds (FIG. 2B); format: in vivo; conditions: seeds coated with compound; 1 week after introduction of larvae
Protocol: (§1) Corn seeds used were a non-transgenic type strain of corn to prevent confounding results. Germination typically occurred between 2-4 days after moistening.
(§2) Seed coating was accomplished by placing 20 g of corn seeds or soybeans into a container with approximately 1 mL of a 1:5 Elmer's glue:water solution with a small amount of Triton-X100™ (present 100 μL/5 mL). For solid compounds, 0.25 g of compound was subsequently introduced into the container. This mixture of seeds, Elmer's Glue/water/Triton-X 100™ solution, and active compound was mixed thoroughly until seeds were coated with the active ingredient.
(§3) For each treatment, 0.25 g of liquid compound was dissolved in 5 mL of hexane. 0.25 g of Hi-Sil 233 silica gel was introduced into this mixture of hexane and active ingredient. The solvent was blown-off using a rotary evaporator, allowing for the compound to adsorb to the silica gel. This 0.5 g of silica gel:active ingredient was then used as the solid material used for coating the seeds. The seeds were then coated with the same method used for solid compound.
(§4) Three corn seeds coated in pogostone derivative treatments were germinated in small, 2-oz. […] Germination of seedlings was also recorded at the end of the assay by counting the total number of seeds that produced roots out of the 3 seeds in each container/replicate and recorded as total percentage germination. […]

[2] = test system: adult female Aedes aegypti; experiment: Topical combination of Formula 13 with synthetic insecticides (FIGS. 6-9); format: in vivo
Protocol: A low-dose concentration of Formula 13 (500 μg/mL) was applied in combination with chlorfenapyr (75 μg/mL), dibrom (10 μg/mL), thiamethoxam (100 μg/mL), and permethrin (2.5 μg/mL) to the pronotum of adult female Aedes aegypti in 0.2 μL of acetone. These concentrations were chosen as they produced little-to-no mortality at 24 hours after application. Knockdown (immobilization) was recorded at 1 hour after application and mortality was recorded at 24, 48, and 72 hours after initial application. These applications were run in parallel to a topical application of a combined mixture of 500 μg/mL Formula 13 and 75 μg/mL of chlorfenpayr to the pronotum of adult female mosquitoes. For this experiment, total of 25 mosquitoes were treated within each replicate, with a minimum of 3 replicates utilized for each treatment. Synergism was defined as the higher percentage mortality in the insecticidal combination of both Formula 13 and chlorfenapyr compared to each individual component applied by itself.

two-spotted spider mites = experiment: Leaf spray/dip test, spider mites (FIG. 4b); format: in vivo, two-spotted spider mite; conditions: spider mites on dipped soybean leaves, 48 hours
Protocol: (§5) Soybean leaves were removed from a previously uninfested plant and dipped in solution containing water, various concentrations of compounds to be screened, and 0.5% industrial emulsifier. Leaves were allowed to air dry for 30 minutes before the beginning of the assay to assure excess formulation was not present on the treated leaves. Ten two-spotted spider mites or ten soybean aphid adults were gently placed on the top surface of the treated leaves. A minimum of three replicates were performed for each formulation tested in this experiment. Mortality of aphids or spider mites was recorded at 48 hours after their introduction to treated leaves. All treatments were compared to a water+emulsifier control and a thymol+emulsifier control. Data was presented as the average mortality across all replicates along with the standard error of the mean.

soybean aphids = experiment: Leaf spray/dip test, soybean aphids (FIG. 4a); format: in vivo, soybean aphid; conditions: soybean aphids on dipped soybean leaves, 48 hours
Protocol: as §5

[3] = test system: Western corn rootworm larvae; experiment: Seed treatment testing: rootworm survival (FIG. 2A); format: in vivo; conditions: seeds coated with compound; 1 week after introduction of larvae
Protocol: as §1, §2, §3, §4

German roaches = experiment: Spray-cup testing, German roaches (FIG. 3b); format: in vivo, German roach; conditions: Formula 13 2.5% w/v in water vs thymol 2.5% or 10% w/v
Protocol: 10 adults of various arthropod species used for this characterization were placed into 8 oz. ice cream cups with tulle placed over the top to prevent the escape of arthropods from the container. Test formulations were added to spray bottles ([…]™) and applied at the same distance and spray number to eliminate variation between manufacturer spray bottles. For all experiments, spray bottles were set to mist in order to prevent excess formulation from accumulating in the cups. […] Mortality was recorded at 1 min, 5 min, 10 min, 15 min, 30 min, 4 hours, and 8 hours for each replicate. A minimum of 3 replicates of 10 arthropods/cup/replicate were performed for each formulation. Data was modeled using a logarithmic regression to show the speed-to-kill of each formulation and highlight differences among treatment groups. Different spray amounts were used for each arthropod, depending on susceptibility, e.g.:
German roaches=10 sprays, 3 in […]

adult, female mosquitoes = experiment: Topical application on adult female mosquitoes (24-h mortality, 1-h knockdown); format: in vivo, mosquito

CC(C)CCC(=O)c1c(O)c2ccccc2oc1=O [Formula 13]
LC50 ([1]; Aedes aegypti, larval mortality at 24 hours, in 25 mL DI water, read-out: LC50): 1.34 µg/mL | larvicidal properties compared with natural pogostone or rotenone ([1]; words): possessed better larvicidal properties than natural pogostone; also recorded: possessed better larvicidal properties than rotenone; also recorded: performed as well as the rotenone | phytotoxicity to treated corn seeds (corn seeds): did not; also recorded: do not cause phytotoxicity | mortality at 500 µg/mL ([2]; Aedes aegypti, 24 h, read-out: 24-hr percentage mortality): 11.2% | percentage mortality at 24 hour ([2]; chlorfenapyr 75 ug/mL, Formula 13 500 ug/mL, alone or combined, words): very low mortality | mortality compared with thymol or control (two-spotted spider mites): performed better than thymol | mortality compared with thymol or control (soybean aphids): performed better than thymol; also recorded: significantly more effective at killing soybean aphids compared to thymol or a control | western corn rootworm mortality [3]: significant western corn rootworm mortality | efficacy (mortality) compared with thymol (German roaches): outperformed thymol at all time points; also recorded: surpassed the efficacy of thymol at both an equal or higher concentration | ED50 (adult, female mosquitoes; topical, 1 h, read-out: KD50 (ug/g mosquito)): 182 mg/kg | LD50 (adult, female mosquitoes; topical, 24 h, read-out: LD50 (ug/g mosquito)): 119 mg/kg | insecticidal properties compared with natural pogostone, natural pyrethrins or terpenoids (adult, female mosquitoes; words, refers to Table 1): possessed better insecticidal properties than natural pogostone
